Some test systems named below: EKVX; SF-268; SN12C; HCT-116; HOP-92; CCRF-CEM; TK-10; NCI-H23; MDA-N; UO-31; UACC-62; SNB-75; COLO 205; RXF 393; SF-295; HCC 2998.
Common to all, as to experiment: DTP human tumour cell line panel, 48 h

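All cell lines were grown in 96-well plates and treated with compound for 48 hours. GI50 = concentration required for 50% inhibition of growth.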 Active and inactive are the calls of the source. Rule as the data show it: active = GI50 up to about 1.1 µM and inactive = higher.

By GI50 is commonly meant the concentration giving 50% growth inhibition. Consider `OCc1cn(Cc2ccccc2)c2ccccc12`, for which the GI50 in the assay on EKVX was > 73.1 µM (inactive); in the assay with SF-268, 14 µM (inactive); in the assay on SN12C, 26 µM (inactive); with HCT-116, 0.555 µM (active); with HOP-92 it was 5.51 µM (inactive); in the assay with CCRF-CEM, 0.488 µM (active). Also, the GI50 with TK-10 was < 0.0359 µM (active); in the assay with NCI-H23, 14.4 µM (inactive); in the assay with MDA-N it was 35.6 µM (inactive); in the assay on UO-31, > 87.7 µM (inactive); in the assay on UACC-62, 0.646 µM (active); with SNB-75, 1.51 µM (inactive). The values for the GI50 in the assay on COLO 205 and with RXF 393 were 0.444 µM (active) and < 0.0316 µM (active), respectively.
With `C=C1C[C@@H](O)[C@@H](Br)C(C)(C)[C@@]12C=CC(O)(CBr)CC2` (some centres not stated), the GI50 was 6.98 µM (inactive) in the assay with EKVX; 50 µM (inactive) in the assay with SF-268; > 100 µM (inactive) in the assay with SN12C; > 100 µM (inactive) with HCT-116; 13.6 µM (inactive) with HOP-92; 28.1 µM (inactive) with CCRF-CEM. In addition, the GI50 in the assay with TK-10 is > 100 µM (inactive); in the assay with NCI-H23, 94 µM (inactive); in the assay with MDA-N it was > 100 µM (inactive); in the assay on UO-31, > 100 µM (inactive); in the assay with UACC-62 it was 43.3 µM (inactive); with SF-295 it was > 100 µM (inactive). In addition, in the assay on RXF 393, the GI50 is 43.3 µM (inactive).
For the compound `O=C1C(/C=C/c2ccc(Cl)cc2)=NNC2N1N=C1NC(=O)C3(NN12)c1ccccc1-c1ccccc13` (configuration not stated), the GI50 in the assay with HCC 2998 was > 100 µM (inactive); in the assay on EKVX, 38.5 µM (inactive); with SF-268, > 100 µM (inactive); in the assay with SN12C, > 100 µM (inactive); in the assay on HCT-116 it was > 100 µM (inactive); in the assay with HOP-92, 41.9 µM (inactive). Also, the GI50 was 65.6 µM (inactive) in the assay with CCRF-CEM; > 100 µM (inactive) with TK-10; > 100 µM (inactive) with NCI-H23; 94 µM (inactive) in the assay with UO-31; > 100 µM (inactive) in the assay with UACC-62; > 100 µM (inactive) in the assay with SNB-75. The GI50 in the assay on SF-295, with COLO 205 and in the assay on RXF 393 was > 100 µM (inactive) each time.
In the case of `C=CCOC(=O)CC[C@H](NC(=O)[C@@H](CCC(F)(F)F)Cc1ccc(O)cc1)C(=O)OCC=C`, the GI50 was 27.3 µM (inactive) with EKVX; 41 µM (inactive) with SF-268; 45.4 µM (inactive) with SN12C; > 100 µM (inactive) with HCT-116; 67.1 µM (inactive) in the assay with HOP-92; 38.5 µM (inactive) with NCI-H23. The GI50 is 32.7 µM (inactive) in the assay with MDA-N; > 100 µM (inactive) in the assay with UO-31; 34 µM (inactive) in the assay on UACC-62; 28.8 µM (inactive) in the assay with SNB-75; > 100 µM (inactive) in the assay on SF-295; 21.3 µM (inactive) in the assay with COLO 205. Further, the GI50 in the assay with RXF 393 is > 100 µM (inactive).
`O=C(CN1CCOCC1)c1ccc2c(c1)oc(=O)n2CCN1CCOCC1`: the GI50 in the assay with EKVX, with SF-268, in the assay on SN12C, in the assay on HCT-116, in the assay with CCRF-CEM and in the assay on MDA-N was > 100 µM (inactive) throughout. In addition, the GI50 in the assay with SNB-75, in the assay on SF-295, in the assay on COLO 205 and with RXF 393 was > 100 µM (inactive) throughout.
In the case of `CC(C)CC(NC=O)C(=O)NC(Cc1ccccc1)NC(=O)CNC(=O)C(C)NC(=O)OC(C)(C)C` (configuration not stated), the GI50 in the assay with EKVX, in the assay with SF-268, in the assay on SN12C, in the assay with HCT-116, in the assay with HOP-92 and in the assay on TK-10 was > 100 µM (inactive) each time. The GI50 in the assay with NCI-H23, in the assay on MDA-N, in the assay on UO-31, with UACC-62, in the assay on SNB-75 and in the assay with SF-295 was > 100 µM (inactive) each time. The GI50 in the assay on COLO 205 and with RXF 393 was > 100 µM (inactive) in each case.
In the case of `N#Cc1nc(-c2cnccn2)oc1N`, the GI50 in the assay on EKVX, in the assay with SF-268, in the assay on SN12C, with HCT-116, in the assay on HOP-92 and in the assay with CCRF-CEM was > 100 µM (inactive) throughout. The GI50 in the assay on TK-10 is > 100 µM (inactive); with MDA-N it was > 100 µM (inactive); in the assay with UO-31, 62.5 µM (inactive); with UACC-62, > 100 µM (inactive); in the assay with SNB-75 it was > 100 µM (inactive); in the assay on RXF 393, > 100 µM (inactive).
For the compound `CC1COC(c2cn[nH]c2C(N)=O)C1O` (configuration not stated), the GI50 in the assay on EKVX, in the assay with SF-268, in the assay with SN12C, with HCT-116, in the assay with CCRF-CEM and in the assay with TK-10 was > 100 µM (inactive) in each case. The GI50 with NCI-H23, in the assay with MDA-N, in the assay on UO-31, with UACC-62, with SNB-75 and in the assay on SF-295 was > 100 µM (inactive) in each case. Moreover, the GI50 in the assay on COLO 205 was > 100 µM (inactive).
Regarding `C=Cc1ccccc1C1(O)C=CC(OC)(OC)C=C1`, the GI50 with HCC 2998 is 18.5 µM (inactive); in the assay with EKVX, 14.7 µM (inactive); in the assay on SF-268 it was 9.62 µM (inactive); in the assay on SN12C, 8.24 µM (inactive); in the assay on HCT-116, 3.4 µM (inactive); in the assay with CCRF-CEM it was 2.94 µM (inactive). The GI50 with TK-10 was 3.25 µM (inactive); with NCI-H23, 4.46 µM (inactive); with UO-31, 7.24 µM (inactive); in the assay with UACC-62, 4.51 µM (inactive); in the assay with SNB-75, 18.8 µM (inactive); in the assay with SF-295, 17.8 µM (inactive). The results for the GI50 with COLO 205 and in the assay with RXF 393 were 10.8 µM (inactive) and 4.97 µM (inactive), respectively.
On to `COCCN(C(=O)c1ccccc1)C1CCC2(SCCS2)c2[nH]c3ccccc3c21` (configuration not stated), for which the GI50 with HCC 2998 was 51.4 µM (inactive); with EKVX it was 30.3 µM (inactive); with SF-268 it was > 100 µM (inactive); in the assay with SN12C, 40.2 µM (inactive); with HCT-116, 37.8 µM (inactive); with HOP-92 it was 20.1 µM (inactive). Moreover, the GI50 in the assay with CCRF-CEM is 29.8 µM (inactive); in the assay with TK-10, 79.1 µM (inactive); in the assay with NCI-H23, 51.5 µM (inactive); in the assay on UO-31 it was 40.7 µM (inactive); in the assay on SNB-75, 70.1 µM (inactive); in the assay on SF-295 it was 42.7 µM (inactive). For the same compound, the GI50 in the assay with COLO 205 is 37.7 µM (inactive); in the assay on RXF 393 it was 20.7 µM (inactive).
As for `COc1ccc(-c2nc3ncccn3c2-c2ccc(SC)cc2)cc1`, the GI50 is 0.418 µM (active) in the assay on SF-268; 3.92 µM (inactive) in the assay with SN12C; 1.1 µM (active) in the assay with HCT-116; 7.18 µM (inactive) in the assay with HOP-92; 2.28 µM (inactive) with CCRF-CEM; 3.3 µM (inactive) with NCI-H23. Also, the GI50 with MDA-N is 0.237 µM (active); in the assay with UO-31, 4.46 µM (inactive); in the assay with UACC-62, 0.916 µM (active); in the assay on SNB-75, 5.96 µM (inactive); with SF-295, 0.989 µM (active); in the assay with COLO 205 it was 1.33 µM (inactive).
With `COC(=O)C(N)CCCC(N)C(=O)NC(C)C(=O)NC(CCC(=O)NCCCNc1ccc([N+](=O)[O-])c2[nH]c3ccccc3c(=O)c12)C(N)=O` (configuration not stated), the GI50 in the assay with HCC 2998 was 6.82 µM (inactive); in the assay on EKVX, 7.78 µM (inactive); in the assay on SF-268 it was 3.25 µM (inactive); with HCT-116 it was 2.33 µM (inactive); in the assay on HOP-92, 11.4 µM (inactive); in the assay on CCRF-CEM, 3.9 µM (inactive). Besides, the GI50 is 10 µM (inactive) with TK-10; 5.68 µM (inactive) in the assay with NCI-H23; 3.49 µM (inactive) with UO-31; 2.42 µM (inactive) with UACC-62; 9.89 µM (inactive) in the assay with SNB-75; 6.24 µM (inactive) in the assay on SF-295. For the same compound, the GI50 in the assay with COLO 205 was 3.85 µM (inactive); in the assay on RXF 393 it was 9.55 µM (inactive).
For the compound `COC(=O)[C@H](Cc1ccccc1)NC(=O)[C@H](Cc1ccccc1)NC(=O)[C@@H]1CCCN1C(=O)N[C@H]1C2C=CC(C2)C1C(=O)N1CCC[C@H]1C(=O)N[C@@H](C)C(=O)N[C@H](C(=O)OC)C(C)C` (some centres not stated), the GI50 in the assay on EKVX was > 100 µM (inactive); in the assay with SF-268, 94.2 µM (inactive); in the assay on SN12C, > 100 µM (inactive); in the assay with HCT-116 it was > 100 µM (inactive); in the assay on HOP-92, 73.1 µM (inactive); in the assay with CCRF-CEM, 22.5 µM (inactive). In addition, the GI50 was 65.5 µM (inactive) in the assay with TK-10; > 100 µM (inactive) in the assay with NCI-H23; > 100 µM (inactive) with MDA-N; > 100 µM (inactive) in the assay on UO-31; 92 µM (inactive) in the assay with UACC-62; > 100 µM (inactive) with SNB-75. Besides, the GI50 with SF-295 was 30.8 µM (inactive); with COLO 205, > 100 µM (inactive); in the assay on RXF 393, > 100 µM (inactive).
For the compound `O=C1Nc2ccc(S(=O)(=O)O)cc2/C1=N/Nc1ccccc1[N+](=O)[O-]`, the GI50 in the assay on EKVX, in the assay on SF-268, in the assay on SN12C, in the assay with HCT-116, with HOP-92 and in the assay on TK-10 was > 100 µM (inactive) throughout. Further, the GI50 was > 100 µM (inactive) in the assay on NCI-H23; > 100 µM (inactive) in the assay on MDA-N; > 100 µM (inactive) in the assay with UO-31; 35 µM (inactive) in the assay on UACC-62; > 100 µM (inactive) in the assay on SNB-75; > 100 µM (inactive) with SF-295. In addition, the GI50 with COLO 205 and in the assay with RXF 393 was > 100 µM (inactive) in each case.

For the origin of these results see ChEMBL document CHEMBL1201862, “PubChem BioAssay data set” (2004).
